Consider 80 compounds from the METLIN SMRT retention time set (Domingo-Almenara et al. 2019).

Each structure is given as a SMILES string.

The series in a line: gradient 5% acetonitrile 3 min, to 50% in 2 min, to 85% in 15 min, held 3 min, 100 µL/min. Particulars: column: Zorbax Extend-C18 2.1 x 50 mm; eluents: water / acetonitrile, 0.1% formic acid. The gist of the method: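 Data were gathered over 3 months by HPLC coupled to a quadrupole time-of-flight mass spectrometer, operated in positive and negative ionization mode. Mixtures of ~100 pure standards ran on a Zorbax Extend-C18 column (2.1 × 50 mm, 1.8 μm) at 100 μL/min, with water and acetonitrile each containing 0.1% formic acid and dead and dwell volumes of 40 μL and 900 μL. Retention time was read from adduct peaks picked by computer and checked manually.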
Take `Cc1ccc(C)c(N2CCN(c3ncc(S(=O)(=O)c4ccc(Cl)cc4)c(N)n3)CC2)c1`: the RP-LC retention time turned out to be 1380 s.
For the compound `CC1(C)CC(=O)C2=C(C1)N(CC1CCCO1)C(=O)C2(NC(=O)c1ccccc1F)C(F)(F)F` (stereo not given), the RP-LC retention time was found to be 908 s.
`CSc1ccccc1C(=O)Nc1nc(CN2CCc3ccccc3C2)cs1`: the RP-LC retention time is 594 s.
As for `CC(C)CCN1C(=O)C2CCCN2C(=O)c2ccccc21` (stereo not given), the RP-LC retention time is 797 s.
`c1ccc(-c2nc[nH]c2-c2ccccc2)cc1`: the RP-LC retention time came to 696 s.
Turning to `COc1cccc(CNC(=O)c2ccc3c(c2)nc2n3CCN(Cc3ccccn3)C2=O)c1`, the RP-LC retention time amounted to 626 s.
As for `Cc1cc(-c2nnc(NC(=O)Cc3ccc4c(c3)OCO4)o2)n(C)n1`, the RP-LC retention time stood at 648 s.
Compound `CCOc1ccc(S(=O)(=O)N2CCC(C(=O)NCc3ccccn3)CC2)cc1` came in with an RP-LC retention time of 658 s.
Compound `O=C(NCCc1c[nH]c2ccccc12)C1CC(=O)N(Cc2ccccc2)C1` (stereo not given) had an RP-LC retention time of 736 s.
`COc1ccc(-c2cn3c(CC(=O)Nc4cc(OC)ccc4OC)csc3n2)cc1` came in with an RP-LC retention time of 780 s.
The compound `COc1ccc([C@@H]2CC(=O)c3c(O)cc(O[C@@H]4O[C@H](CO)[C@@H](O)[C@H](O)[C@H]4OC4O[C@@H](C)[C@H](O)[C@@H](O)[C@H]4O)cc3O2)cc1O` (stereo not given in full) had an RP-LC retention time of 652 s.
Regarding `CCCn1c(CCNC(=O)c2cccc(F)c2)nc2cccnc21`, the RP-LC retention time was 644 s.
The compound `O=C(CCCOc1ccc(Cl)cc1Cl)Nc1nc(-c2ccc(Cl)cc2)cs1` showed an RP-LC retention time of 1300 s.
`O=C(NC1CCCc2c1[nH]c1ccc(Cl)cc21)c1ccncc1` (stereo not given) had an RP-LC retention time of 859 s.
`COc1ccc(-c2noc(Cc3nnc(-c4ccc(C)c(C)c4)o3)n2)cc1` returned an RP-LC retention time of 1090 s.
The same measure for `COc1ccc(NC(=O)N2CCC(n3c(-c4ccc(OC)cc4)nc4cccnc43)C2)cc1` (stereo not given): 709 s.
The compound `CCS(=O)(=O)N1CC(F)(F)C[C@H]1c1nc(-c2cccnc2)no1` displayed an RP-LC retention time of 743 s.
The compound `C=C(C)COc1ccc2c(C)c(CCC(=O)N3CCN(c4ccccn4)CC3)c(=O)oc2c1C` displayed an RP-LC retention time of 743 s.
`Cn1c(CCNC(=O)c2cccc(F)c2)nc2cccnc21` showed an RP-LC retention time of 611 s.
The compound `CS(=O)(=O)N1CCC(OC2CCN(C(=O)NCc3ccccc3)CC2)CC1` returned an RP-LC retention time of 704 s.
Next, `O=C(NCC1CCOCC1)c1ccc(Br)cc1`: 708 s; `O=C(Nc1ccc2c(c1)CCCN2C(=O)C1CC1)c1nc2ccccc2s1`: 968 s.
`O=C(C1CCC1)N1CCc2sc(S(=O)(=O)Nc3cccc(Cl)c3)cc2C1` returned an RP-LC retention time of 941 s.
Next, `CCOc1ccc(N2CCn3c2nnc(C(=O)NCc2ccco2)c3=O)cc1`: 684 s.
In turn, `COc1cccc(-c2nc(CN3CCCC3=O)no2)c1` gave an RP-LC retention time of 697 s.
In turn, `COc1ccc(OCc2noc(CNC(=O)CCC(=O)c3ccccc3)n2)cc1` yielded an RP-LC retention time of 712 s.
`O=C(c1ccc2c(c1)CCCN2S(=O)(=O)c1ccccc1)N1CCOCC1` registered an RP-LC retention time of 787 s.
Take `CCC1CCCCN1C(=O)c1cnc2nc(C)ccc2c1Nc1cccc(C(=O)OC)c1` (stereo not given): the RP-LC retention time was determined as 653 s.
For the compound `O=C(O)c1cccc2c1CCN2C(=O)c1ccc(F)cc1`, the RP-LC retention time is 761 s.
Take `Cc1ccccc1CNC(=O)C1CCN(S(=O)(=O)c2cc(C(=O)N(C)C)cs2)CC1`: the RP-LC retention time was determined as 762 s.
The compound `CCCn1cc(CCNC(=O)Nc2cc(C)cc(C)c2)c2cccnc21` showed an RP-LC retention time of 736 s.
Turning to `Cc1sc(NC(=O)Cc2ccccc2)nc1-c1ccc2c(c1)NC(=O)CO2`, the RP-LC retention time was determined as 830 s.
In turn, `COc1ccc(-c2nc(-c3ccc4oc(C)nc4c3)no2)cc1F` came in with an RP-LC retention time of 1080 s.
Take `Cc1nn(CC(=O)N2CCCCCC2)c(=O)c2c(-n3cccc3)n(-c3ccc(Cl)cc3)nc12`: the RP-LC retention time was determined as 1090 s.
For `Cc1c(-c2noc(C(=O)NCCN3CCCC3)n2)oc2c(C)cccc12`, the RP-LC retention time is 668 s.
`COc1cccc(N2C(=O)C3N=NN(Cc4nc(-c5ccccc5C)no4)C3C2=O)c1` (stereo not given) displayed an RP-LC retention time of 976 s.
Compound `Cc1nc(OCC(=O)Nc2cccc(C)c2C)c2ccccc2n1` showed an RP-LC retention time of 737 s.
The compound `O=C(NC1CC1)c1cccc(OCC2CCCN(C(=O)C3CCC3)C2)c1` (stereo not given) yielded an RP-LC retention time of 789 s.
The same measure for `Clc1ccc(-c2nnc(-c3cccnc3NCc3cccs3)o2)cc1`: 1310 s.
`COc1ccc(Cl)c2c(=O)c3c([nH]c12)CCN(CC(=O)Nc1ccccc1F)C3` had an RP-LC retention time of 604 s.
In turn, `Cn1c(=O)n(Cc2ccc(Br)cc2F)c(=O)c2cnc(-c3cccnc3)nc21` yielded an RP-LC retention time of 968 s.
For `Cn1nc(C(=O)N2C[C@@H]3C[C@H](NC(=O)c4cccnc4)[C@H]2C3)c2ccccc21`, the RP-LC retention time came out at 636 s.
The same measure for `Cc1ccccc1CNC1=NCCNC12CCN(S(=O)(=O)c1ccc(Cl)cc1)CC2`: 753 s.
Compound `Cc1ccc(C)c(N2CCN(c3ccnc(SCC(=O)Nc4ccc(F)cc4C)n3)CC2)c1` came in with an RP-LC retention time of 1010 s.
As for `Cc1cccc(S(=O)(=O)N2CCN(c3cc(C)nc(NC4CCCCC4)n3)CC2)c1`, the RP-LC retention time was found to be 860 s.
The same measure for `COCC(=O)N1CCCc2ccc(NC(=O)NCc3cccs3)cc21`: 662 s.
In turn, `CCc1ccc(N2C=C(C(=O)N3CCOCC3)S(=O)(=O)c3ccc(Cl)cc32)cc1` came in with an RP-LC retention time of 936 s.
Compound `CC(C)(C)c1csc(-c2csc(S(=O)(=O)Nc3ccc(F)cc3)c2)n1` came in with an RP-LC retention time of 1220 s.
Next, `O=C(c1ccc(F)cc1)N1CCCC1c1nc(-c2ccccc2)n[nH]1` (stereo not given): 726 s.
Compound `N#Cc1c(N)sc2c1CCC(c1ccccc1)C2` (stereo not given) came in with an RP-LC retention time of 955 s.
The same measure for `CCCn1c(-c2cccc(C(=O)NCCC3=CCCCC3)c2)nc2cccnc21`: 935 s; for `Cc1ccc(Nc2c(-c3ccc(C)cc3)nc3c(C)cccn23)cc1`: 808 s; for `COCC1CN(C(=O)c2ccoc2C)CCC1(F)F` (stereo not given): 729 s.
`Cc1ccc(-c2noc(CNC(=O)C3CCC(=O)N3S(=O)(=O)c3ccc(C)cc3)n2)cc1` (stereo not given) registered an RP-LC retention time of 929 s.
Take `CCOc1ccc(-c2noc(Cn3nc(-c4ccc5c(c4)OCO5)ccc3=O)n2)cc1`: the RP-LC retention time is 1130 s.
For the compound `O=C(CCCS(=O)(=O)Cc1ccccc1)Nc1nc2c(s1)Cc1ccccc1-2`, the RP-LC retention time was found to be 841 s.
The same measure for `Cc1nnc2n1CCC(NC(=O)Cc1ccsc1)CC2` (stereo not given): 573 s; for `CC(=O)Nc1nc(-c2ccc3c(c2)NC(=O)C(C)O3)cs1` (stereo not given): 685 s; for `Cc1ccc2[nH]c(C(=O)NC3CC3)c(N3CCCC3=O)c2c1`: 707 s.
Next, `COc1cc(OC)c(NC(=O)Cn2nc(C(=O)N3CCCC3)c3ccccc32)cc1Cl`: 897 s.
Regarding `O=C(NCCN1CCCCCC1)c1csc(-c2ccnc(N3CCOCC3)c2)n1`, the RP-LC retention time was 569 s.
Compound `CCCCN(Cc1ccco1)C(=O)C1CCCN(c2ncnc3c2nc2n3CCCCC2)C1` (stereo not given) had an RP-LC retention time of 949 s.
Next, `O=C(c1cc2ccccc2[nH]1)N1CCCC(c2nnc(C(F)(F)F)o2)C1` (stereo not given): 857 s.
`O=C1[C@H]2CN(Cc3cccc(OC(F)(F)F)c3)C[C@H]2C(=O)N1Cc1ccc2c(c1)OCO2` yielded an RP-LC retention time of 969 s.
The same measure for `Cc1cccc2nnc(N3CCC(C(=O)N4CCOCC4)CC3)n12`: 568 s.
`CCc1cccc(NC(=O)C2CC(=O)N(c3ccc4oc(C)nc4c3)C2)c1` (stereo not given) showed an RP-LC retention time of 785 s.
`CCc1nccn1Cc1nc(-c2ccc3c(c2)OCO3)no1` registered an RP-LC retention time of 621 s.
Consider `CC(=O)N1CCN(c2nc(C)cc(N3CCCC3)n2)CC1`, for which the RP-LC retention time amounted to 580 s.
Turning to `CCCNC(=O)C1CCN(c2nc3ccc(-c4ccccc4F)nc3s2)CC1`, the RP-LC retention time was 951 s.
In turn, `CCn1cnc(S(=O)(=O)N2CCC(C(=O)NCc3ccc(N(C)C)cc3)CC2)c1` had an RP-LC retention time of 567 s.
As for `Cc1ccc(NC(=O)C2CCN(C(=O)c3ncn4c3COC(c3ccc(F)cc3)C4)CC2)c(C)c1` (stereo not given), the RP-LC retention time came to 832 s.
In turn, `Cc1cc(C2CCCN2C(=O)Nc2ccccc2C(F)(F)F)no1` (stereo not given) gave an RP-LC retention time of 895 s.
For `O=c1n(Cc2ccccc2)nc2c(S(=O)(=O)N3CCCCCC3)cccn12`, the RP-LC retention time stood at 948 s.
Next, `COc1ccc(NC(=O)Cn2cnc3nc4c(cc3c2=O)CCCC4)cc1OC`: 676 s.
Consider `Cc1noc(C)c1CC(=O)NCc1nnc2n1CCCC2`, for which the RP-LC retention time stood at 559 s.
In turn, `Cc1csc(-c2ccc(N3CCN(C(=O)c4cccs4)CC3)nc2)n1` gave an RP-LC retention time of 781 s.
`Cc1ccc(CN(C)C(=O)NC(C)C)s1` had an RP-LC retention time of 804 s.
On to `COc1ccccc1N1CCN(C(=O)c2csc3nc(-c4ccc(F)cc4)cn23)CC1`, for which the RP-LC retention time was 879 s.
In turn, `COC(=O)c1cc(OCC(=O)Nc2ccc3c(c2)OCO3)c2cc(F)ccc2n1` had an RP-LC retention time of 778 s.
Turning to `COc1cccc(CC(=O)N2CCC(c3cc(N)on3)CC2)c1`, the RP-LC retention time turned out to be 663 s.
